Measured values: US20230167081A1, “5-AMINO-2-PIPERIDINON-3-YL-1-OXOISOINDOLINE DERIVATIVES FOR DEGRADATION OF IKZF2 DEGRADERS” (President and Fellows of Harvard College, priority 2020, published 2023)
Entries after “also recorded” stand apart in the source; their conditions may differ. Where two headings read alike, the source gives them in different places.

Key:
IKZF2 [1] = target: T1, IKZF2 (Homo sapiens, UniProt Q9UKS7); settings: background statement; cited from earlier work
Target sequence in this assay (Q9UKS7 whole entry): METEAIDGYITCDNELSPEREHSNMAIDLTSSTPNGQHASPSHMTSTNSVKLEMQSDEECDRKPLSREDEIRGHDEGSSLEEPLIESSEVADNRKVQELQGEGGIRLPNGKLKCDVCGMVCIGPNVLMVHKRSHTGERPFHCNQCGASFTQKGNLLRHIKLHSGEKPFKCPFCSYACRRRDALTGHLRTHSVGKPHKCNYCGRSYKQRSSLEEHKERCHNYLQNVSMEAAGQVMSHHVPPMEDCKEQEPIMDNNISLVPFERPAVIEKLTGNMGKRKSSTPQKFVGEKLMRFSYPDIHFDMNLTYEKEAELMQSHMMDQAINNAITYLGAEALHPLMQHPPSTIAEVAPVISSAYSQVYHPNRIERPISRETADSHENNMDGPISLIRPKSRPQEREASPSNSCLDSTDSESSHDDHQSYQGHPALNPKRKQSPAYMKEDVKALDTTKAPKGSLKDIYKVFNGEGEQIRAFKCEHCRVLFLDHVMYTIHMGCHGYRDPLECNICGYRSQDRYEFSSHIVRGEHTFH
Target sequence in this assay (Q96SW2 whole entry, further chain): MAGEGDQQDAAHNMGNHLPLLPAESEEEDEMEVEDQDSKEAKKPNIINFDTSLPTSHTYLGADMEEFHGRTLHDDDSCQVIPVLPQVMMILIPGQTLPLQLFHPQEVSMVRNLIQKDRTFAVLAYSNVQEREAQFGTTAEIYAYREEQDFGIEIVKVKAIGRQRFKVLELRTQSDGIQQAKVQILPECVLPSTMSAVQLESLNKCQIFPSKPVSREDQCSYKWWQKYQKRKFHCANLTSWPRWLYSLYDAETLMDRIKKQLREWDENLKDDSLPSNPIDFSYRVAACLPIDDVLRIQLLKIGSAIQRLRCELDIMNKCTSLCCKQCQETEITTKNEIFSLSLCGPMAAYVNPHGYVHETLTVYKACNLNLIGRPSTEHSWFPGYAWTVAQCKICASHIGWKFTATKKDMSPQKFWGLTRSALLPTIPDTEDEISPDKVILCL

GSPT1 = GSPT1 (Homo sapiens, UniProt P15170+Q96SW2); experiment: Western blot, GSPT1 levels in MOLM13 cells; format: cell-based; design: endogenous in cells; host or cells: MOLM13
Protocol: (§1) To determine the selectivity of DEG-7 and DEG-35, blotting was done for other known IMiD neo-substrates (FIG. 1A). DEG-35 degraded casein kinase 1α (CK1α), a known substrate of lenalidomide, as well as the translation termination factor GSPT1, a substrate of the IMiD CC-885, at 25 μM concentrations. To investigate whether DEG-35 could degrade IKZF2 at lower concentrations, MOLM13 cells were treated with a concentration gradient. At the lowest concentration tested (5 nM), IKZF2 and CK1a degraded, while GSPT1 levels were unperturbed.

MOLM13 cells [2] = experiment: MTT cell viability assay in MOLM13 cells; format: cell-based, human
Protocol: The effect of DEG-7 and DEG-35 were evaluated on cell viability in MOLM13 cells.

IKZF2 [3] = target: T1, IKZF2; experiment: Western blot, IKZF2 degradation in MOLM13 cells; format: cell-based; design: endogenous in cells; host or cells: MOLM13
Protocol: as §1
Target sequence in this assay (Q9UKS7 whole entry): as the sequence (Q9UKS7 whole entry) above
Target sequence in this assay (Q96SW2 whole entry, further chain): as the sequence (Q96SW2 whole entry, further chain) above
Target sequence in this assay (Q16531 whole entry partner): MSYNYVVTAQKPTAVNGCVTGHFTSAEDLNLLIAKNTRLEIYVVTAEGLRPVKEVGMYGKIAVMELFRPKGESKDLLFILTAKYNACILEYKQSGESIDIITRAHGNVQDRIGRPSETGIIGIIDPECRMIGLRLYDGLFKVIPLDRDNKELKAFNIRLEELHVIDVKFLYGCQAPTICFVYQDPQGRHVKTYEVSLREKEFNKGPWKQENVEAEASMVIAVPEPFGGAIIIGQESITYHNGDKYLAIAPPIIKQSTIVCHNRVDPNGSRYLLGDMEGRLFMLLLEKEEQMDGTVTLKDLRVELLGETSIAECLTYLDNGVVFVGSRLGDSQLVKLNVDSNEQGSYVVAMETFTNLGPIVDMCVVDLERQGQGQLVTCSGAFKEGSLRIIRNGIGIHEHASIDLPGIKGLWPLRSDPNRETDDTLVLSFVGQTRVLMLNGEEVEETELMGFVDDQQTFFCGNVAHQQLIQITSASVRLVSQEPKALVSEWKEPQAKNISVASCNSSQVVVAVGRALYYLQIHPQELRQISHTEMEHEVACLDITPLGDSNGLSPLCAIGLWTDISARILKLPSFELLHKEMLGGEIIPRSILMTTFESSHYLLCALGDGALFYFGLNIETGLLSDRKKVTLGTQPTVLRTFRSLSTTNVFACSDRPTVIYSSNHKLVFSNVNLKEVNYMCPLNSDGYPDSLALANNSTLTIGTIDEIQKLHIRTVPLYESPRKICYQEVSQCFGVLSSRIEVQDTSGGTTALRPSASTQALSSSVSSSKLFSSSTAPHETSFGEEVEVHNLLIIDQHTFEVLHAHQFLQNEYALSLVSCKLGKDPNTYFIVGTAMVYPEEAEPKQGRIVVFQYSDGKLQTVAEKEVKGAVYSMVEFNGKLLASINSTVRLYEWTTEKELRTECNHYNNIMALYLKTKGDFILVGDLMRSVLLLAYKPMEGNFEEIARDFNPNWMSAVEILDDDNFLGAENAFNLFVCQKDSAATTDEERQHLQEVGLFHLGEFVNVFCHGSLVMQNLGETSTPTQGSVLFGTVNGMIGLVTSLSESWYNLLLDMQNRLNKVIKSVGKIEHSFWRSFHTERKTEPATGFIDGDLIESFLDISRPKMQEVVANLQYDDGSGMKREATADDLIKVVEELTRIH

IKZF1 = target: T2, IKZF1 (Homo sapiens, UniProt Q13422); experiment: Western blot, IKZF1 levels in MOLM13 cells; format: cell-based
T2 construct: endogenous in cells; host or cells: MOLM13
Source text: DEG-37 is also a suitable lead compound for IKZF2 targeted degradation (FIG. 4).

MOLM13 cells [4] = experiment: Apoptosis markers in MOLM13 cells; format: cell-based, human
MOLM13 cells [5] = experiment: Differentiation in MOLM13 cells; format: cell-based, human
KASUMI = experiment: Cell viability, antiproliferation, apoptosis, differentiation in KASUMI cells; format: cell-based
NOMO1 = experiment: Cell viability, antiproliferation, apoptosis, differentiation in NOMO1 cells; format: cell-based
[6] = tested on: over 800 cancer cell lines; experiment: PRISM screen against over 800 cancer cell lines; format: cell-based; settings: MOLM13 cell line
Source text: DEG-7 and DEG-35 were submitted to the Broad Institute's PRISM (Profiling Relative Inhibition Simultaneously in Mixtures) screen to be evaluated against over 800 cancer cell lines. The initial screen identified cancer cell lines that were responsive to DEG-7 and DEG-35 treatment. […] Several diffuse large B-cell lymphoma (DLBCL), acute myeloid leukemia (AML), and T-cell acute lymphoblastic leukemia (T-ALL) cell lines responded to DEG-35 in a dose-dependent manner. Of the top ten cell lines that responded to DEG-35 treatment, three were DLBCL cell lines, one was an AML cell line (MOLM13), and one was a T-ALL cell line.

Sequence of GSPT1 (P15170 whole entry): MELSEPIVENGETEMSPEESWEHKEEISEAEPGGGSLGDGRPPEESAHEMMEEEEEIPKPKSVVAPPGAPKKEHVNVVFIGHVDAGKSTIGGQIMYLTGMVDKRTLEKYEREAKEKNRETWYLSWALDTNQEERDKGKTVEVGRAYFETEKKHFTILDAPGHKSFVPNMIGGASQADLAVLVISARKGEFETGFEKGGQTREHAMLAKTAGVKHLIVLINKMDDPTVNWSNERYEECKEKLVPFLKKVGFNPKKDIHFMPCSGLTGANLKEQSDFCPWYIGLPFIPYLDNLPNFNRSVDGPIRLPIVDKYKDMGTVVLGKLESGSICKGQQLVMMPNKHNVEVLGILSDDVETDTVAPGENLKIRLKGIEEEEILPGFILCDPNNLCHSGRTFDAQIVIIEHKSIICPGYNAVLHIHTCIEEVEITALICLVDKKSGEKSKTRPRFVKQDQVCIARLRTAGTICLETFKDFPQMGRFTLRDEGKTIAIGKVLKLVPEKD
Sequence of GSPT1 (Q96SW2 whole entry): as the sequence (Q96SW2 whole entry, further chain) above
Sequence of GSPT1 (Q16531 whole entry partner): as the sequence (Q16531 whole entry partner) above
T2 sequence (Q96SW2 whole entry partner): as the sequence (Q96SW2 whole entry, further chain) above
T2 sequence (Q16531 whole entry partner): as the sequence (Q16531 whole entry partner) above
T2 sequence (Q13422 whole entry): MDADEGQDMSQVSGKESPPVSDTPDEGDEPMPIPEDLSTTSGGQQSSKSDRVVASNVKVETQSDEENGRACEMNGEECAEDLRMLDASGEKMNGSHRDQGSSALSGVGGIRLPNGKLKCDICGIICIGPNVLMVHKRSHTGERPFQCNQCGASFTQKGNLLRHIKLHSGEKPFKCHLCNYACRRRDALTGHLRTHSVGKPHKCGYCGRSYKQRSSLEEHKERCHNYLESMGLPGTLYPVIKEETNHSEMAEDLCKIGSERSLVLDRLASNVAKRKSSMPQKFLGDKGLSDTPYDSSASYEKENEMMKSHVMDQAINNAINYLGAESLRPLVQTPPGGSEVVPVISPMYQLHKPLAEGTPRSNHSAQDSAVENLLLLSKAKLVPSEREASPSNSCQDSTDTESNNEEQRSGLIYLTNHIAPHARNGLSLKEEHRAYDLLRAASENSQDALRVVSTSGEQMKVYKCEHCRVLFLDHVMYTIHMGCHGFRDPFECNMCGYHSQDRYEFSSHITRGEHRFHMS

For `Nc1cccc2c1CN(C1CCC(=O)NC1=O)C2=O` (stereo not drawn) [lenalidomide], the IKZF2 degradation (IKZF2 [1]) is given as “not degraders of IKZF2”.

With `O=C1CCC(N2Cc3cc(NCc4ccc5oc6ccccc6c5c4)ccc3C2=O)C(=O)N1` (stereo not drawn) [DEG-37, 3-(5-((dibenzo[b,d]furan-2-ylmethyl)amino)-1-oxoisoindolin-2-yl)piperidine-2,6-dione] the “effect on GSPT1 levels” value (GSPT1) was “minimally effect”, the “antiproliferative activity (in words)” value (MOLM13 cells [2]; MOLM13 / AML cells) was “milder antiproliferative effects; also recorded: possesses antiproliferative effects” and the IKZF2 degradation (IKZF2 [3]; 25 μM) was “selectively degrade IKZF2; also recorded: degrades IKZF2”. For the same molecule, the “effect on IKZF1 levels” value (IKZF1) was “minimally effect”.

With `COc1ccc2cc(CNc3ccc4c(c3)CN(C3CCC(=O)NC3=O)C4=O)ccc2c1` (stereo not drawn) [DEG-7, 3-(5-(((6-methoxynaphthalen-2-yl)methyl)amino)-1-oxoisoindolin-2-yl)piperidine-2,6-dione] the “induction of apoptosis markers” value (MOLM13 cells [4]) was “induced apoptosis markers”, the IC50 (MOLM13 cells [2]; MOLM13 cells) was 4.5 µM and the induction of differentiation (MOLM13 cells [5]) was “induced differentiation; also recorded: more efficient at inducing differentiation than DEG-35”. The IKZF2 degradation (IKZF2 [3]; analog screening, concentration not given) was “robust IKZF2 degradation; also recorded: potent degraders of IKZF2”, the “effect on cell viability, antiproliferation, apoptosis, or differentiation” value (KASUMI) was “no observed effect” and the “effect on cell viability, antiproliferation, apoptosis, or differentiation” value (NOMO1) was “no observed effect”. The “sensitivity of MOLM13 in PRISM screen” value [6] was “sensitive”.
